Assay results taken from US5672715A, “Herbicidal substituted 3-aryl-pyrazoles” (Monsanto Company, priority 1995, dated 1997).

Key:
Assay type in all cases: in vivo
Soybean [1] = test: pre-emergence herbicide test; settings: Glycine max, pre-emergence, 0.25 lb/A; read-out: % plant inhibition
How it was run: (§1)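 Herbicidal effect was assessed as percent inhibition about 14 days after sowing. A known amount of compound was added to the covering topsoil, and the pans were subirrigated in a greenhouse.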

Velvetleaf [2] = test: pre-emergence herbicide test; settings: Abutilon theophrasti, pre-emergence, 0.25 lb/A; read-out: % plant inhibition
How it was run: as §1

Seedling Johnsongrass [3] = test: pre-emergence herbicide test; settings: Sorghum halepense, pre-emergence, 0.25 lb/A; read-out: % plant inhibition
How it was run: as §1

Birdseye Speedwell [4] = test: pre-emergence herbicide test; settings: pre-emergence, 0.25 lb/A; read-out: % plant inhibition
How it was run: as §1

Giant Foxtail [5] = test: pre-emergence herbicide test; settings: Setaria faberi, pre-emergence, 0.25 lb/A; read-out: % plant inhibition
How it was run: as §1

Downy Brome [6] = test: pre-emergence herbicide test; settings: Bromus tectorum, pre-emergence, 0.25 lb/A; read-out: % plant inhibition
How it was run: as §1

Corn [7] = test: pre-emergence herbicide test; settings: Zea mays, pre-emergence, 0.25 lb/A; read-out: % plant inhibition
How it was run: as §1

Wild Oats [8] = test: pre-emergence herbicide test; settings: Avena fatua, pre-emergence, 0.25 lb/A; read-out: % plant inhibition
How it was run: as §1

Barnyardgrass [9] = test: pre-emergence herbicide test; settings: Echinochloa crus-galli, pre-emergence, 0.25 lb/A; read-out: % plant inhibition
How it was run: as §1

Blackgrass [10] = test: pre-emergence herbicide test; settings: Alopecurus myosuroides, pre-emergence, 0.25 lb/A; read-out: % plant inhibition
How it was run: as §1

Green Foxtail [11] = test: pre-emergence herbicide test; settings: Setaria viridis, pre-emergence; 0.25 lb/A; read-out: % plant inhibition
How it was run: as §1

Wheat [12] = test: pre-emergence herbicide test; settings: Triticum aestivum, pre-emergence, 0.25 lb/A; read-out: % plant inhibition
How it was run: as §1

Morning Glory [13] = test: pre-emergence herbicide test; settings: Ipomoea, pre-emergence, 0.25 lb/A; read-out: % plant inhibition
How it was run: as §1

Bedstraw Catchweed [14] = test: pre-emergence herbicide test; settings: Galium aparine, pre-emergence, 0.25 lb/A; read-out: % plant inhibition
How it was run: as §1

Common Chickweed [15] = test: pre-emergence herbicide test; settings: pre-emergence, 0.25 lb/A; read-out: % plant inhibition
How it was run: as §1

Cocklebur [16] = test: pre-emergence herbicide test; settings: Xanthium strumarium, pre-emergence, 0.25 lb/A; read-out: % plant inhibition
How it was run: as §1

Rape [17] = test: pre-emergence herbicide test; settings: pre-emergence, 0.25 lb/A; read-out: % plant inhibition
How it was run: as §1

Soybean [18] = test: post-emergence herbicide test; settings: Glycine max, post-emergence, 0.25 lb/A; read-out: % plant inhibition
How it was run: (§2)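 Plants grown in greenhouse soil pans for two to three weeks were sprayed with compound in about 0.4% v/v emulsifier at 170.3 kPa and 1870 L/Ha, at the stated application rates. Activity was scored as percent inhibition of each species.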

Velvetleaf [19] = test: post-emergence herbicide test; settings: Abutilon theophrasti, post-emergence, 0.25 lb/A; read-out: % plant inhibition
How it was run: as §2

Seedling Johnsongrass [20] = test: post-emergence herbicide test; settings: Sorghum halepense, post-emergence, 0.25 lb/A; read-out: % plant inhibition
How it was run: as §2

Birdseye Speedwell [21] = test: post-emergence herbicide test; settings: post-emergence, 0.25 lb/A; read-out: % plant inhibition
How it was run: as §2

Giant Foxtail [22] = test: post-emergence herbicide test; settings: Setaria faberi, post-emergence, 0.25 lb/A; read-out: % plant inhibition
How it was run: as §2

Downy Brome [23] = test: post-emergence herbicide test; settings: Bromus tectorum, post-emergence, 0.25 lb/A; read-out: % plant inhibition
How it was run: as §2

Corn [24] = test: post-emergence herbicide test; settings: Zea mays, post-emergence, 0.25 lb/A; read-out: % plant inhibition
How it was run: as §2

Wild Oats [25] = test: post-emergence herbicide test; settings: Avena fatua, post-emergence, 0.25 lb/A; read-out: % plant inhibition
How it was run: as §2

Barnyardgrass [26] = test: post-emergence herbicide test; settings: Echinochloa crus-galli, post-emergence, 0.25 lb/A; read-out: % plant inhibition
How it was run: as §2

Blackgrass [27] = test: post-emergence herbicide test; settings: Alopecurus myosuroides, post-emergence, 0.25 lb/A; read-out: % plant inhibition
How it was run: as §2

Green Foxtail [28] = test: post-emergence herbicide test; settings: Setaria viridis, post-emergence, 0.25 lb/A; read-out: % plant inhibition
How it was run: as §2

Wheat [29] = test: post-emergence herbicide test; settings: Triticum aestivum, post-emergence, 0.25 lb/A; read-out: % plant inhibition
How it was run: as §2

Morning Glory [30] = test: post-emergence herbicide test; settings: Ipomoea, post-emergence, 0.25 lb/A; read-out: % plant inhibition
How it was run: as §2

Bedstraw Catchweed [31] = test: post-emergence herbicide test; settings: Galium aparine, post-emergence, 0.25 lb/A; read-out: % plant inhibition
How it was run: as §2

Common Chickweed [32] = test: post-emergence herbicide test; settings: post-emergence, 0.25 lb/A; read-out: % plant inhibition
How it was run: as §2

Cocklebur [33] = test: post-emergence herbicide test; settings: Xanthium strumarium, post-emergence, 0.25 lb/A; read-out: % plant inhibition
How it was run: as §2

Rape [34] = test: post-emergence herbicide test; settings: post-emergence, 0.25 lb/A; read-out: % plant inhibition
How it was run: as §2

| Structure (SMILES) | inhibition at 280.212 g/ha (Soybean [1]) | inhibition at 280.212 g/ha (Velvetleaf [2]) | inhibition at 280.212 g/ha (Seedling Johnsongrass [3]) | inhibition at 280.212 g/ha (Birdseye Speedwell [4]) | inhibition at 280.212 g/ha (Giant Foxtail [5]) | inhibition at 280.212 g/ha (Downy Brome [6]) | inhibition at 280.212 g/ha (Corn [7]) | inhibition at 280.212 g/ha (Wild Oats [8]) | inhibition at 280.212 g/ha (Barnyardgrass [9]) | inhibition at 280.212 g/ha (Blackgrass [10]) | inhibition at 280.212 g/ha (Green Foxtail [11]) | inhibition at 280.212 g/ha (Wheat [12]) | inhibition at 280.212 g/ha (Morning Glory [13]) | inhibition at 280.212 g/ha (Bedstraw Catchweed [14]) | inhibition at 280.212 g/ha (Common Chickweed [15]) | inhibition at 280.212 g/ha (Cocklebur [16]) | inhibition at 280.212 g/ha (Rape [17]) | inhibition at 280.212 g/ha (Soybean [18]) | inhibition at 280.212 g/ha (Velvetleaf [19]) | inhibition at 280.212 g/ha (Seedling Johnsongrass [20]) | other results |
| --- | --- | --- | --- | --- | --- | --- | --- | --- | --- | --- | --- | --- | --- | --- | --- | --- | --- | --- | --- | --- | --- |
| Cc1c(-c2cc(C(=O)OCC(=O)OC(C)C)c(Cl)cc2F)nn(C)c1C(F)(F)F [Compound 23] | 5% | 65% | 30% | 100% | 65% | 15% | 0% | 10% | 40% | 15% | 85% | 0% | 25% | 45% | 100% | 10% | 75% | 30% | 98% | 65% | inhibition at 280.212 g/ha (Birdseye Speedwell [21]): 75%; inhibition at 280.212 g/ha (Giant Foxtail [22]): 20%; inhibition at 280.212 g/ha (Downy Brome [23]): 25%; inhibition at 280.212 g/ha (Corn [24]): 7%; inhibition at 280.212 g/ha (Wild Oats [25]): 20%; inhibition at 280.212 g/ha (Barnyardgrass [26]): 60%; inhibition at 280.212 g/ha (Blackgrass [27]): 15%; inhibition at 280.212 g/ha (Green Foxtail [28]): 15%; inhibition at 280.212 g/ha (Wheat [29]): 11%; inhibition at 280.212 g/ha (Morning Glory [30]): 65%; inhibition at 280.212 g/ha (Bedstraw Catchweed [31]): 50%; inhibition at 280.212 g/ha (Common Chickweed [32]): 75%; inhibition at 280.212 g/ha (Cocklebur [33]): 90%; inhibition at 280.212 g/ha (Rape [34]): 10% |
| CCOC(=O)CCCOC(=O)c1cc(-c2nn(C)c(C(F)(F)F)c2C)c(F)cc1Cl [Compound 24] | 0% | 60% | 10% | 100% | 35% | 30% | 0% | 15% | 20% | 50% | 100% | 7% | 0% | 95% | 100% | 40% | 95% | 45% | 99% | 20% | inhibition at 280.212 g/ha (Birdseye Speedwell [21]): 95%; inhibition at 280.212 g/ha (Giant Foxtail [22]): 15%; inhibition at 280.212 g/ha (Downy Brome [23]): 25%; inhibition at 280.212 g/ha (Corn [24]): 10%; inhibition at 280.212 g/ha (Wild Oats [25]): 25%; inhibition at 280.212 g/ha (Barnyardgrass [26]): 15%; inhibition at 280.212 g/ha (Blackgrass [27]): 25%; inhibition at 280.212 g/ha (Green Foxtail [28]): 20%; inhibition at 280.212 g/ha (Wheat [29]): 20%; inhibition at 280.212 g/ha (Morning Glory [30]): 75%; inhibition at 280.212 g/ha (Bedstraw Catchweed [31]): 65%; inhibition at 280.212 g/ha (Common Chickweed [32]): 90%; inhibition at 280.212 g/ha (Cocklebur [33]): 85%; inhibition at 280.212 g/ha (Rape [34]): 25% |
| Cc1c(-c2cc(C(=O)OC3CCOC3)c(Cl)cc2F)nn(C)c1C(F)(F)F (stereo not drawn) [Compound 25] | 5% | 80% | 99% | 100% | 100% | 10% | 45% | 90% | 95% | 98% | 100% | 0% | 55% | 85% | 100% | 35% | 35% | 60% | 100% | 85% | inhibition at 280.212 g/ha (Birdseye Speedwell [21]): 95%; inhibition at 280.212 g/ha (Giant Foxtail [22]): 75%; inhibition at 280.212 g/ha (Downy Brome [23]): 50%; inhibition at 280.212 g/ha (Corn [24]): 20%; inhibition at 280.212 g/ha (Wild Oats [25]): 35%; inhibition at 280.212 g/ha (Barnyardgrass [26]): 85%; inhibition at 280.212 g/ha (Blackgrass [27]): 40%; inhibition at 280.212 g/ha (Green Foxtail [28]): 65%; inhibition at 280.212 g/ha (Wheat [29]): 16%; inhibition at 280.212 g/ha (Morning Glory [30]): 90%; inhibition at 280.212 g/ha (Bedstraw Catchweed [31]): 65%; inhibition at 280.212 g/ha (Common Chickweed [32]): 90%; inhibition at 280.212 g/ha (Cocklebur [33]): 90%; inhibition at 280.212 g/ha (Rape [34]): 40% |
